# Patent US20210386738A1, “COMBINATION OF PRMT5 INHIBITORS AND BCL-2 INHIBITORS” (GLAXOSMITHKLINE INTELLECTUAL PROPERTY DEVELOPMENT LIMITED, priority 2018, published 2021)
# System: lymphoma cell line DB
# Experiment: Serial dilutions: fixed ABT-199 concentration with Compound A titration, six-day cell proliferation
# Format: cell-based
# Settings: for compound A required for gIC100: six days
# Description: Serial dilutions were performed for the combination to ascertain the change in gIC50, gIC100 and dEC50 when the inhibitors are used together in a PRMT5 inhibitor cell proliferation. A first compound plate was prepared where PRMT5 inhibitor, Compound A, was prepared with a 20-point, two-fold dilution series of compound A from column 1 to 20. A second compound plate was prepared using the BCL-2 inhibitor ABT-199. ABT-199 was titrated in a 16-point 2-fold dilution series from row A to Q. A third plate was then created by added equal volume of 12 ul (ABT-199) from each well in the second plate into the corresponding well in the first plate. The third plate comprised rows from A to Q, each row comprising a fixed concentration of ABT-199. Columns 1-20 comprised varying concentrations of compound A from the 20-point dilution. Plates were incubated for six days at the conditions described above. Lymphoma cell line DB was treated with the solution in each of the wells. Cell growth was measured using CellTiter-Glo (Promega) and luminescence signal was detected with a BioTek Synergy Neo microplate reader. A plate of untreated cells was read at the time of compound/biologic addition to determine the T0 value representing the starting number of cells. Data were fit with a four-parameter equation to generate a concentration response curve for each row using Assay Client software. A comparison was made across each row in the third plate to determine, when keeping a fixed concentration of ABT-199, what concentration of compound A is needed to reach the gIC50, gIC100 or dEC50 respectively and the fold change compared to treating the same cell with compound A alone.
# Tables 4a-c show the results of the above serial dilution experiments wherein ‘fold change’ is the difference between the amount of compound A needed to achieve gIC50, gIC100 or dEC50 respectively, compared to the amount of compound A needed to achieve gIC50, gIC100 or dEC50 respectively when compound A is given as a single agent.
compound,measurement,setting,value
O=C(NC[C@H](O)CN1CCc2ccccc2C1)c1ccnc(NC2CCC2)c1 [Compound A],"Fold change over compound A single agent gIC50 (631 nM, most potent of the two agents)",with fixed ABT-199 4 nM,1.2
same,"Fold change over compound A single agent gIC100 (6489 nM, most potent of the two agents)",with fixed ABT-199 4 nM,0.9
same,compound A required for gIC100,with fixed ABT-199 4 nM,6989 nM
same,"Fold change over compound A single agent gIC50 (631 nM, most potent of the two agents)",with fixed ABT-199 7 nM,1.4
same,"Fold change over compound A single agent gIC100 (6489 nM, most potent of the two agents)",with fixed ABT-199 7 nM,1.0
same,compound A required for gIC100,with fixed ABT-199 7 nM,6362 nM
same,"Fold change over compound A single agent gIC50 (631 nM, most potent of the two agents)",with fixed ABT-199 14 nM,1.6
same,"Fold change over compound A single agent gIC100 (6489 nM, most potent of the two agents)",with fixed ABT-199 14 nM,0.9
same,compound A required for gIC100,with fixed ABT-199 14 nM,6896 nM
same,"Fold change over compound A single agent gIC50 (631 nM, most potent of the two agents)",with fixed ABT-199 29 nM,1.8
same,"Fold change over compound A single agent gIC100 (6489 nM, most potent of the two agents)",with fixed ABT-199 29 nM,1.2
same,compound A required for gIC100,with fixed ABT-199 29 nM,5525 nM
same,"Fold change over compound A single agent gIC50 (631 nM, most potent of the two agents)",with fixed ABT-199 57 nM,2.6
same,"Fold change over compound A single agent gIC100 (6489 nM, most potent of the two agents)",with fixed ABT-199 57 nM,2.2
same,Fold change over top concentration of compound A or ABT-199 inhibitor used in the assay (since no dEC50 observed with single agents),with fixed ABT-199 57 nM,1.2
same,compound A required for gIC100,with fixed ABT-199 57 nM,3004 nM
same,"Fold change over compound A single agent gIC50 (631 nM, most potent of the two agents)",with fixed ABT-199 115 nM,3.0
same,"Fold change over compound A single agent gIC100 (6489 nM, most potent of the two agents)",with fixed ABT-199 115 nM,2.4
same,Fold change over top concentration of compound A or ABT-199 inhibitor used in the assay (since no dEC50 observed with single agents),with fixed ABT-199 115 nM,1.4
same,compound A required for gIC100,with fixed ABT-199 115 nM,2716 nM
same,"Fold change over compound A single agent gIC50 (631 nM, most potent of the two agents)",with fixed ABT-199 229 nM,5.5
same,"Fold change over compound A single agent gIC100 (6489 nM, most potent of the two agents)",with fixed ABT-199 229 nM,2.5
same,Fold change over top concentration of compound A or ABT-199 inhibitor used in the assay (since no dEC50 observed with single agents),with fixed ABT-199 229 nM,1.4
same,compound A required for gIC100,with fixed ABT-199 229 nM,2624 nM
same,"Fold change over compound A single agent gIC50 (631 nM, most potent of the two agents)",with fixed ABT-199 458 nM,5.3
same,"Fold change over compound A single agent gIC100 (6489 nM, most potent of the two agents)",with fixed ABT-199 458 nM,3.1
same,Fold change over top concentration of compound A or ABT-199 inhibitor used in the assay (since no dEC50 observed with single agents),with fixed ABT-199 458 nM,1.7
same,compound A required for gIC100,with fixed ABT-199 458 nM,2118 nM
same,"Fold change over compound A single agent gIC50 (631 nM, most potent of the two agents)",with fixed ABT-199 916 nM,8.1
same,"Fold change over compound A single agent gIC100 (6489 nM, most potent of the two agents)",with fixed ABT-199 916 nM,3.3
same,Fold change over top concentration of compound A or ABT-199 inhibitor used in the assay (since no dEC50 observed with single agents),with fixed ABT-199 916 nM,2.6
same,compound A required for gIC100,with fixed ABT-199 916 nM,1994 nM
same,"Fold change over compound A single agent gIC50 (631 nM, most potent of the two agents)",with fixed ABT-199 1833 nM,8.5
same,"Fold change over compound A single agent gIC100 (6489 nM, most potent of the two agents)",with fixed ABT-199 1833 nM,4.0
same,Fold change over top concentration of compound A or ABT-199 inhibitor used in the assay (since no dEC50 observed with single agents),with fixed ABT-199 1833 nM,3.1
same,compound A required for gIC100,with fixed ABT-199 1833 nM,1604 nM
same,"Fold change over compound A single agent gIC50 (631 nM, most potent of the two agents)",with fixed ABT-199 3666 nM,7.8
same,"Fold change over compound A single agent gIC100 (6489 nM, most potent of the two agents)",with fixed ABT-199 3666 nM,3.7
same,Fold change over top concentration of compound A or ABT-199 inhibitor used in the assay (since no dEC50 observed with single agents),with fixed ABT-199 3666 nM,3.3
same,compound A required for gIC100,with fixed ABT-199 3666 nM,1745 nM
same,"Fold change over compound A single agent gIC50 (631 nM, most potent of the two agents)",with fixed ABT-199 7331 nM,43
same,"Fold change over compound A single agent gIC100 (6489 nM, most potent of the two agents)",with fixed ABT-199 7331 nM,3.8
same,Fold change over top concentration of compound A or ABT-199 inhibitor used in the assay (since no dEC50 observed with single agents),with fixed ABT-199 7331 nM,3.2
same,compound A required for gIC100,with fixed ABT-199 7331 nM,1707 nM
